Results: article PMC6130489, “Caffeic acid methyl and ethyl esters exert potential antidiabetic effects on glucose and lipid metabolism in cultured murine insulin-sensitive cells through mechanisms implicating activation of AMPK” (Pharmaceutical Biology, 2017)

Experiments:
PPAR-γ = assay: Western immunoblot PPAR-γ in 3T3-L1 adipocytes; type: cell-based, mouse; details: 100 μM (Figure 4 legend)
Procedure: (§1) Insulin (100 nM) or aminoimidazole carboxamide ribonucleotide (AICAR; 1 mM) were added to some vehicle-treated wells 30 min prior to the end of the treatment and served as the positives controls. Protein content was assayed by the bicinchoninic acid method (Thermo Scientific Pierce Protein Research, Rockford, IL) standardized to bovine serum albumin. Western immunoblotting was performed as described elsewhere (Eid et al. [2010]). Membranes were incubated overnight with phospho-AMPK, phospho-Akt, GLUT4, GLUT1 and β-actin antibodies (1:1000 dilution, Cell Signalling Technology, Danvers, MA), or with PPAR-γ, SREBP-1 (1:200, Santa Cruze Biotechnology, Santa Cruz, CA), followed by incubation with HRP-coupled secondary antibody (1:10,000) for 1 h. Immunoreactive bands were visualized by enhanced chemiluminescence and quantified by the Scion Image program (Scion Corporation, Frederick, MD). Experiments were repeated on 3 different passages of cells, each passage containing all conditions in parallel.
(§2) Figure 4. CAME and CAEE inhibit C/EBP-β and PPAR-γ protein expression through mechanisms implicating AMPK pathway. Shown are representative blots of 3T3-adipocytes treated with the maximum nontoxic concentration (100 μM) of either CAME or CAEE. […] Data are expressed as C/EBP-β/β-actin (D), PPAR-γ/β-actin (E), phospho-Akt/pan-Akt (F) and phospho-AMPK/pan-AMPK (G). […]

Akt [1] = assay: Western immunoblot phospho-Akt in 3T3-L1 adipocytes; type: cell-based, mouse; details: 100 μM (Figure 4 legend)
Procedure: as §1, §2

GLUT1 = assay: Western immunoblot GLUT1 protein content in L6 myotubes; type: cell-based, rat; details: 50 μM, 18 h
Procedure: (§3) L6 cells myotubes, H4IIE cells and 3T3-L1 adipocytes were treated with either CAME, CAEE (50 μM each) or vehicle (DMSO) for 18 h. Insulin (100 nM) or aminoimidazole carboxamide ribonucleotide (AICAR; 1 mM) were added to some vehicle-treated wells 30 min prior to the end of the treatment and served as the positives controls. Protein content was assayed by the bicinchoninic acid method (Thermo Scientific Pierce Protein Research, Rockford, IL) standardized to bovine serum albumin. Western immunoblotting was performed as described elsewhere (Eid et al. [2010]). […] Immunoreactive bands were visualized by enhanced chemiluminescence and quantified by the Scion Image program (Scion Corporation, Frederick, MD). […]
(§4) Figure 1. […] Cells were treated as previously described, cell surface GLUT4myc was detected by an enzyme-linked colorimetric assay. […] Results represent the means ± SEM of three independent experiments, and 3-4 cells were analyzed for each condition per experiment. *Indicates a significant (p ≤ 0.05) difference, **(p < 0.01) from the vehicle control group as assessed by ANOVA. […] Data are expressed as (D) phospho-AMPK/β-actin, (E) GLUT4/β-actin and (F) GLUT1/β-actin and are given as mean ± SEM from 3 experiments. *p < 0.05 indicates a significant difference, **(p < 0.01) from the vehicle control group.

AMPK [2] = assay: Western immunoblot phospho-AMPK in 3T3-L1 adipocytes; type: cell-based, mouse; details: 100 μM (Figure 4 legend), phospho-AMPK/pan-AMPK
Procedure: as §1, §2

3T3-L1 cells = assay: LDH cytotoxicity assay; type: cell-based; details: 16-18 h, concentration inducing less than 10% cell death
Procedure: (§5) To determine nontoxic concentrations, cells were treated overnight (16–18 h) with 0.1% DMSO or different concentrations of either CAME or CAEE (12.5, 25, 50 and 100 μM). Cell culture media were collected separately and kept on ice. The cells were rinsed with PBS then lysed with 1% Triton X-100 in culture media for 10 min and the lysate were centrifuged at 4 °C for 10 min at 250g. Lactate dehydrogenase (LDH) activity in medium and in lysates was assayed with the LDH-Cytotoxicity Assay Kit II (BioVision, Mountain View, CA) according to the manufacturer's protocol (Smith et al. [2011]). LDH activity was expressed as the ratio of released LDH (medium) to total (medium + lysate) LDH activity.
(§6) Similar to our previous study in C2C12 cells, the maximum nontoxic concentrations of CAME and CAEE were determined using a LDH assay kit. Concentrations that induced less than 10% cell death were chosen as the maximum nontoxic concentrations (Table 1).

H4IIE cells = assay: LDH cytotoxicity assay; type: cell-based; details: 16-18 h, concentration inducing less than 10% cell death
Procedure: as §5, §6

L6 GLUT4myc cells = assay: LDH cytotoxicity assay; type: cell-based; details: 16-18 h, concentration inducing less than 10% cell death
Procedure: as §5, §6

Akt [3] = assay: Western immunoblot phospho-Akt in L6 myotubes; type: cell-based, rat; details: 50 μM, 18 h
Procedure: as §3, §4

AMPK [4] = assay: Western immunoblot phospho-AMPK in L6 myotubes; type: cell-based, rat; details: 50 μM, 18 h, phospho-AMPK/β-actin
Procedure: as §1, with “L6 cells myotubes, H4IIE cells and 3T3-L1 adipocytes were treated with either CAME, CAEE (50 μM each) or vehicle (DMSO) for 18 h. Insulin” for “Insulin”
as §4, with “1. (A) CAME and CAEE increase ^3H-deoxyglucose uptake in L6 GLUT4myc myotubes. Cells were treated with 50 μM of either CAME, CAEE, or with vehicle (0.1% DMSO) for 18 h. 100 nM insulin served as the positive control and was applied for the last 15 min of the treatment in vehicle-treated cells. Glucose uptake was performed as described in Materials and Methods section.” for “1.”

SMILES	protein level of PPAR-γ (PPAR-γ)	Akt phosphorylation (Akt [1])	effect on GLUT1 protein levels (GLUT1)	phospho-AMPK, fold increase over basal levels (AMPK [2]) [fold]	Maximum non-toxic concentration (3T3-L1 cells) [µM]	Maximum non-toxic concentration (H4IIE cells) [µM]	Maximum non-toxic concentration (L6 GLUT4myc cells) [µM]	effect on Akt (phospho-Akt) (Akt [3])	AMPK phosphorylation, fold increase over DMSO (AMPK [4]) [fold]
COC(=O)/C=C/c1ccc(O)c(O)c1 [CAME, CA methyl ester]	significantly reduced	did not modulate	no effect	2.4	100	100	50	no effect	13
CCOC(=O)/C=C/c1ccc(O)c(O)c1 [CAEE, caffeic acid ethyl ester]	significantly reduced	did not modulate	no effect	2.3	100	50	50	no effect	11
